The source of these data is patent US20090035306A1 (KALYPSYS, INC., priority 2006, published 2009).

The target of the assay is T1, human TGR5 (Homo sapiens, UniProt Q8TDU6).
T1 construct: expressed in transfected cells
T1 sequence (Q8TDU6 1-330): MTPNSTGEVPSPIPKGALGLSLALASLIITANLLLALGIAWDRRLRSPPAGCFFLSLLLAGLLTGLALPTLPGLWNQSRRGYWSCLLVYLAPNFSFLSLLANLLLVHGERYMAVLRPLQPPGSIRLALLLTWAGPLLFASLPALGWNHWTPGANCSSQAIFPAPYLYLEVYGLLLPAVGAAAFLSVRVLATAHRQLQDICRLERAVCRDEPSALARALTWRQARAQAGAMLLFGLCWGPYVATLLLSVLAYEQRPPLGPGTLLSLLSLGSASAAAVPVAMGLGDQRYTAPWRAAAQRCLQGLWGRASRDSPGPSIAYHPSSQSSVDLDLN
Kind of assay: cAMP production assay in HEK293 cells stably expressing TGR5 (LANCE TR-FRET). The format is cell-based. The settings on record: 30 minutes stimulation, read-out: cAMP Production in 293-TGR5 Cells EC50. The protocol: HEK293 cells stably expressing TGR5 (HEK293-TGR5) were established by stably transfecting HEK-293 cells with an expression vector (pcDNA 3.1, Invetrogen) inserted with human TGR5 cDNA using Fugene6 (Roche, Indianapolis, Ind.) according to conventional methods. Cells were grown in DMEM (invitrogen, Carlsbad, Calif.) supplemented with 10% FBS, 1% penicillin/streptomycin under geneticin selection. The presence of TGR5 transcripts in these cells was confirmed using branched DNA (bDNA, Genospectra, Inc., Fremont Calif.) following the manufacturer's protocol and using specific probes for human TGR5. cAMP production assay was performed in high throughput 1536 well format using LANCE cAMP detection kit (Perkin Elmer Inc., Boston, Mass.) according to the manufacturer's protocol. Briefly, HEK293-TGR5 cells were harvested using non-enzymatic cell dissociation buffer (Invitrogen, Carlsbad, Calif.) and suspended in DMEM supplemented with 0.1% FBS at a density of 800,000 cells/ml. Alexa antibody was added to the cell suspension, and 4 ul of the mixture was dispensed in white opaque tissue culture treated Greiner 1536 well plates (USA Scientific, Inc., Ocala, Fla.). After an overnight incubation at 37 C in an atmosphere of 10% CO2 and 95% humidity, 1 ul of 5 mM IBMX (Sigma, St. Louis, Mo.) solution in DMEM was dispensed for a final concentration of 1 mM. Cells were then stimulated with test compounds for 30 minutes, after which time 5 ul of detection reagent was added and incubated for 1-7 hrs at room temperature. TR-FRET signal was detected using the Viewlux (Perkin Elmer Inc., Boston Mass.). EC50 values were determined using Graph Pad Prizm analysis (GraphPad Software, Inc). The EC50 values for a wide range of bile acids generated from this assay were in agreement with the values published in the scientific literature. […] The symbol (+) denotes an EC50 value of ≦10 μM while the symbol (−) denotes an EC50 value of >10 μM (see Table 1).

In the case of `O=c1c2ccccc2nc(-c2cccc(OC(F)(F)F)c2)n1NCc1ccc(Br)cc1` [Example 60, 3-(4-bromobenzylamino)-2-(3-(trifluoromethoxy)phenyl)quinazolin-4(3H)-one], the EC50 was not above 10 µM.

As to `O=c1c2ccccc2nc(-c2ccccc2F)n1NCc1cc(F)cc(F)c1` [Example 13, 3-(3,5-difluorobenzylamino)-2-(2-fluorophenyl)quinazolin-4(3H)-one], the half-maximal effective concentration (EC50) is not above 10 µM.

As to `O=c1c2ccccc2nc(-c2ccc(C(F)(F)F)cc2)n1NCc1ccc(Br)cc1` [Example 9, 3-(4-bromobenzylamino)-2-(4-(trifluoromethyl)phenyl)quinazolin-4(3H)-one], the concentration for a half-maximal effect (EC50) was not above 10 µM.

Take `Cc1ccc2c(=O)n(NCc3ccc(F)cc3F)c(-c3ccccc3F)nc2c1` [Example 25, 3-(2,4-difluorobenzylamino)-2-(2-fluorophenyl)-7-methylquinazolin-4(3H)-one]: the EC50 was not above 10 µM.

As to `O=c1c2ccccc2nc(-c2cccc(F)c2)n1NCc1ccc(F)cc1F` [Example 7, 3-(2,4-difluorobenzylamino)-2-(3-fluorophenyl)quinazolin-4(3H)-one], the EC50 is not above 10 µM.

For `N#Cc1ccc(CNn2c(-c3ccc(F)cc3)nc3ccccc3c2=O)cc1` [Example 32, 4-((2-(4-fluorophenyl)-4-oxoquinazolin-3(4H)-ylamino)methyl)benzonitrile], the EC50 was not above 10 µM.

Consider `Cc1cccc2nc(-c3ccc(F)cc3)n(NCc3ccc(Br)cc3)c(=O)c12` [Example 111, 3-(4-bromobenzylamino)-2-(4-fluorophenyl)-5-methylquinazolin-4(3H)-one], for which the EC50 is not above 10 µM.

Turning to `O=c1c2ccccc2nc(-c2ccc(F)cc2)n1NCc1cccnc1` [Example 37, 2-(4-fluorophenyl)-3-(pyridin-3-ylmethylamino)quinazolin-4(3H)-one], the EC50 is more than 10 µM.

On to `COc1ccc2nc(-c3ccccc3F)n(NCc3ccc(Br)cc3)c(=O)c2c1` [Example 26, 3-(4-bromobenzylamino)-2-(2-fluorophenyl)-6-methoxy quinazolin-4(3H)-one], for which the EC50 is more than 10 µM.

Take `O=c1c2ccccc2nc(-c2ccc(F)cc2)n1NCc1ccc(C(F)(F)F)cc1` [Example 78, 2-(4-fluorophenyl)-3-(4-(trifluoromethyl)benzylamino)quinazolin-4(3H)-one]: the concentration for a half-maximal effect (EC50) was not above 10 µM.

As to `COc1cc(-c2nc3ccccc3c(=O)n2NCc2ccc(Br)cc2)ccc1F` [Example 72, 3-(4-bromobenzylamino)-2-(4-fluoro-3-methoxyphenyl)quinazolin-4(3H)-one], the EC50 is not above 10 µM.

Take `O=c1c2ccccc2nc(-c2ccccc2Cl)n1NCc1ccc(Br)cc1` [Example 10, 3-(4-bromobenzylamino)-2-(2-chlorophenyl)quinazolin-4(3H)-one]: the EC50 is not above 10 µM.

In the case of `O=c1c2ccccc2nc(-c2ccccc2)n1NCc1ccccc1` [Example 6, 3-(benzylamino)-2-phenylquinazolin-4(3H)-one], the EC50 was not above 10 µM.

As to `COc1ccc2c(=O)n(NCc3ccc(Cl)cc3)c(-c3ccc(F)cc3)nc2c1` [Example 35, 3-(4-chlorobenzylamino)-2-(4-fluorophenyl)-7-methoxyquinazolin-4(3H)-one], the EC50 was more than 10 µM.

As for `O=c1c2ccccc2nc(-c2ccc(F)cc2)n1NCc1ccc2ccccc2c1` [Example 38, 2-(4-fluorophenyl)-3-(naphthalen-2-ylmethylamino)quinazolin-4(3H)-one], the EC50 is not above 10 µM.

With `O=c1c2ccccc2nc(-c2cccc(Cl)c2)n1NCc1ccc(Br)cc1` [Example 46, 3-(4-bromobenzylamino)-2-(3-chlorophenyl)quinazolin-4(3H)-one], the EC50 was not above 10 µM.

On to `O=c1c2ccccc2nc(-c2ccsc2)n1NCc1ccc(Br)cc1` [Example 89, 3-(4-bromobenzylamino)-2-(thiophen-3-yl)quinazolin-4(3H)-one], for which the EC50 was not above 10 µM.

With `COc1ccc(-c2nc3ccccc3c(=O)n2NCc2ccc(Br)cc2)cc1O` [Example 118, 3-(4-bromobenzylamino)-2-(3-hydroxy-4-methoxyphenyl)quinazolin-4(3H)-one], the EC50 was not above 10 µM.

Take `O=c1c2ccccc2nc(-c2ccc(F)cc2)n1NCc1ccc(Cl)cc1` [Example 79, 3-(4-chlorobenzylamino)-2-(4-fluorophenyl)quinazolin-4(3H)-one]: the EC50 is not above 10 µM.

Take `COc1ccc(-c2nc3ccccc3c(=O)n2NCc2ccc(Cl)cc2)cc1OC` [Example 62, 3-(4-chlorobenzylamino)-2-(3,4-dimethoxyphenyl)quinazolin-4(3H)-one]: the EC50 was more than 10 µM.

On to `O=c1c2ccccc2nc(-c2ccc(Cl)cc2)n1NCc1ccc(Cl)cc1` [Example 51, 3-(4-chlorobenzylamino)-2-(4-chlorophenyl)quinazolin-4(3H)-one], for which the EC50 is not above 10 µM.

On to `O=c1c2ccccc2nc(-c2ccccc2F)n1NCc1ccc(C(F)(F)F)c(F)c1` [Example 21, 3-(3-fluoro-4-(trifluoromethyl)benzylamino)-2-(2-fluorophenyl)quinazolin-4(3H)-one], for which the 50% effective concentration (EC50) is not above 10 µM.

Turning to `Cc1cccc2c(=O)n(NCc3ccc(Cl)cc3)c(-c3ccc(F)cc3)nc12` [Example 71, 3-(4-chlorobenzylamino)-2-(4-fluorophenyl)-8-methylquinazolin-4(3H)-one], the EC50 was not above 10 µM.

For the compound `O=c1c2ccccc2nc(-c2ccc(F)cc2)n1NCc1cc(C(F)(F)F)cc(C(F)(F)F)c1` [Example 91, 3-(3,5-bis(trifluoromethyl)benzylamino)-2-(4-fluorophenyl)quinazolin-4(3H)-one], the concentration giving a half-maximal response (EC50) was not above 10 µM.

Turning to `COc1ccc2c(=O)n(NCc3ccc(F)cc3F)c(-c3ccc(F)cc3)nc2c1` [Example 34, 3-(2,4-difluorobenzylamino)-2-(4-fluorophenyl)-7-methoxy quinazolin-4(3H)-one], the EC50 is more than 10 µM.

`O=c1c2ccccc2nc(-c2ccccc2F)n1NCc1ccc(Br)cc1` [Example 5, 3-(4-bromobenzylamino)-2-(2-fluorophenyl)quinazolin-4(3H)-one]: the 50% effective concentration (EC50) was not above 10 µM.

For the compound `O=c1c2ccccc2nc(-c2ccccc2C(F)(F)F)n1NCc1ccc(Br)cc1` [Example 8, 3-(4-bromobenzylamino)-2-(2(trifluoromethyl)phenyl)quinazolin-4(3H)-one], the EC50 is not above 10 µM.

Regarding `COc1cc(-c2nc3ccccc3c(=O)n2NCc2ccc(C(F)(F)F)cc2)ccc1C` [Example 68, 2-(3-methoxy-4-methylphenyl)-3-(4-(trifluoromethyl)benzylamino)quinazolin-4(3H)-one], the 50% effective concentration (EC50) was not above 10 µM.

`O=c1c2ccccc2nc(-c2cccc(Cl)c2)n1NCc1ccc(Cl)cc1` [Example 48, 3-(4-chlorobenzylamino)-2-(3-chlorophenyl)quinazolin-4(3H)-one]: the concentration for a half-maximal effect (EC50) is not above 10 µM.

With `COc1cccc(-c2nc3ccccc3c(=O)n2NCc2ccc(Br)cc2)c1` [Example 55, 3-(4-bromobenzylamino)-2-(3-methoxyphenyl)quinazolin-4(3H)-one], the EC50 is not above 10 µM.

Take `O=c1c2ccccc2nc(-c2ccc(O)cc2)n1NCc1ccc(Br)cc1` [Example 97, 3-(4-bromobenzylamino)-2-(4-hydroxyphenyl)quinazolin-4(3H)-one]: the EC50 is not above 10 µM.
